Source: patent US20230125425A1, “TRADITIONAL CHINESE MEDICINE EXTRACT COMPOSITION WITH FUNCTION OF REGULATING DEPRESSIVE EMOTION AND PREPARATION METHOD AND TRADITIONAL CHINESE MEDICINE PREPARATION THEREOF” (CHENLAND NUTRITIONALS, INC., priority 2019, published 2023)
Where a name gives a salt, the structure may show the parent alone.

Experiments:
Type in all cases: in vivo
C57BL/6J mice [1] = assay: Open field test of mice; conditions: open field 6 min, gavage one month, 3.33 mg/kg, x ± SE, hydrochloride
Description: (§1) The mice were kept in a light, temperature and humidity controlled room with 6 mice per cage, and were allowed to eat and drink ad libitum: temperature 21±2° C. humidity 50±10%, 12 h/12 h light and dark cycle (light on at 20:00, light off at 8:00). All animal experiments were conducted in accordance with the guidelines on experiment animal welfare and use issued by NIH.
(§2) The mice were adapted for one week after their arrival, and then entered the experiment.
(§3) The normal group was given the same volume of purified water by gavage, and the gavage doses of other groups are shown in the table in the Experimental results. The mice were administrated by gavage at a fixed time (9:00) every morning, with a gavage volume of 0.1 mL·10g^−1, for one month. The behavioral test was performed 1 h after the last gavage.
The test was carried out in an open field box with a length of 50 cm, a width of 50 cm and a depth of 50 cm. The bottom surface of the open field box was equally divided into 9 squares, in which the middle area was the central area, and the remaining areas were the peripheral areas. The bottom and four sides of the open field box were all white. The test was carried out in a quiet and weak red light environment. At the beginning, the mice were placed in the center of the open field box to observe their activities within 6 minutes. The total movement distance, the movement distance in the central area and the number of standing upright of the mice were recorded.

C57BL/6J mice [2] = assay: Forced swimming test of mice; conditions: gavage daily for one month, 3.33 mg/kg, x ± SE, hydrochloride
Description: as §1, §2, §3
During forced swimming, all animals were put into a plexiglass cylinder containing water with a deep of 20 cm at 23±1° C., individually. After 15 minutes, they were transferred to a dry environment at 30° C. for 30 minutes (pre-experiment). After 24 hours, the mice were put into the plexiglass cylinder again for 5 minutes (formal experiment). During this period, the mice were recorded with a video camera. After each mouse was tested, the water was changed and the cylinder was cleaned. SMART3.0 software was used to record the number of static suspension and the latency of static suspension.

C57BL/6J mice [3] = assay: Tail suspension test of mice; conditions: gavage daily for one month, 3.33 mg/kg, last 4 min of 6 min, x ± SE, hydrochloride
Description: as §1, §2, §3
In the tail suspension test, mice were hung on the tail suspension device using medical tape at a position ⅓ from the tip of the tail, in an upright position with the head being about 30 cm from the ground and facing straight onto a camera, which was used to record the immobility time during the tail suspension test of the mice in each group. The test lasted for 6 minutes, and the last 4 minutes were used to calculate the immobility time during the tail suspension test of mice. Immobility time is defined as the time when the mouse stops struggling and is still in a hanging state.

Structure (SMILES): CNCCC(Oc1ccc(C(F)(F)F)cc1)c1ccccc1 (stereo not drawn) [FXT, Fluoxetine hydrochloride]
- Number of standing uprights (C57BL/6J mice [1]): 29.20 ± 2.133
- Total movement distance (C57BL/6J mice [1]): 18435 ± 950.6
- Movement distance in the central area (C57BL/6J mice [1]; listed as fluoxetine): no significant change
- Number of standing uprights (C57BL/6J mice [1]; listed as fluoxetine): no significant change
- Total movement distance (C57BL/6J mice [1]; listed as fluoxetine): no significant change
- Number of static suspension (C57BL/6J mice [2]): 54.64 ± 2.704
- Number of static suspension (C57BL/6J mice [2]; listed as fluoxetine): significantly less than that of the control group
- Immobility time during tail suspension (C57BL/6J mice [3]): 59.62 ± 6.270 s
- Immobility time during tail suspension (C57BL/6J mice [3]; listed as fluoxetine): significantly less than that of the control group
